The supplement of paper PMC10307832

Experiments:
Assay in all cases: relative viability (nuclei count vs DMSO), 5 days (fraction); higher = more cells survive
CUDC-101 + Olaparib = compound: C#Cc1cccc(Nc2ncnc3cc(OC)c(OCCCCCCC(=O)NO)cc23)c1 [CUDC-101] + O=C(c1cc(Cc2n[nH]c(=O)c3ccccc23)ccc1F)N1CCN(C(=O)C2CC2)CC1 [Olaparib] (partner 8 µM)
Outline: (§1)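 Medians of duplicate plates are given as relative viability. That measure is the nuclei count in treated wells divided by the count in vehicle wells. Counts were taken on 4× images of lung cancer cell lines in 1536-well plates, 5 days after pin-tool dosing the day after seeding with one drug alone or a fixed anchor-drug dose plus five library-drug doses (not always all listed) in √10 steps.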

[1] = compound: C1=CC=C2C(=C1)N=C(S2)C(C#N)C3=NC(=NC=C3)NCCC4=CN=CC=C4 + Nc1nc2[nH]cc(CCc3ccc(C(=O)N[C@@H](CCC(=O)O)C(=O)O)cc3)c2c(=O)[nH]1 [Pemetrexed] (partner 0.2 µM)
Outline: as §1

Vandetanib + Crizotinib = compound: COc1cc2/c(=N/c3ccc(Br)cc3F)nc[nH]c2cc1OCC1CCN(C)CC1 [Vandetanib] + C[C@@H](Oc1cc(-c2cnn(C3CCNCC3)c2)cnc1N)c1c(Cl)ccc(F)c1Cl [Crizotinib] (partner 1 µM)
Outline: as §1

Vandetanib + Pemetrexed = compound: COc1cc2/c(=N/c3ccc(Br)cc3F)nc[nH]c2cc1OCC1CCN(C)CC1 [Vandetanib] + Nc1nc2[nH]cc(CCc3ccc(C(=O)N[C@@H](CCC(=O)O)C(=O)O)cc3)c2c(=O)[nH]1 [Pemetrexed] (partner 0.2 µM)
Outline: as §1

Cell Line | relative viability (CUDC-101 + Olaparib; first compound 0.01 µM) | relative viability (CUDC-101 + Olaparib; first compound 0.03162 µM) | relative viability (CUDC-101 + Olaparib; first compound 0.1 µM) | relative viability (CUDC-101 + Olaparib; first compound 0.3162 µM) | relative viability (CUDC-101 + Olaparib; first compound 1 µM) | relative viability ([1]; first compound 0.005 µM) | relative viability ([1]; first compound 0.01581 µM) | relative viability ([1]; first compound 0.05 µM) | relative viability ([1]; first compound 0.1581 µM) | relative viability ([1]; first compound 0.5 µM) | relative viability (Vandetanib + Crizotinib; first compound 0.02 µM) | relative viability (Vandetanib + Crizotinib; first compound 0.06325 µM) | relative viability (Vandetanib + Crizotinib; first compound 0.2 µM) | relative viability (Vandetanib + Crizotinib; first compound 0.6325 µM) | relative viability (Vandetanib + Crizotinib; first compound 2 µM) | relative viability (Vandetanib + Pemetrexed; first compound 0.02 µM) | relative viability (Vandetanib + Pemetrexed; first compound 0.06325 µM) | relative viability (Vandetanib + Pemetrexed; first compound 0.2 µM) | relative viability (Vandetanib + Pemetrexed; first compound 0.6325 µM) | relative viability (Vandetanib + Pemetrexed; first compound 2 µM)
LC-2-ad | 0.719 | 0.69 | 0.698 | 0.699 | 0.608 | 0.259 | 0.328 | 0.293 | 0.271 | 0.278 | 0.468 | 0.46 | 0.493 | 0.441 | 0.414 | 0.257 | 0.278 | 0.273 | 0.259 | 0.264
NCI-H1299 | 0.964 | 0.953 | 1 | 0.98 | 0.883 | – | – | – | – | – | 0.932 | 0.902 | 0.927 | 0.967 | 0.95 | – | – | – | – | –
NCI-H2009 | 0.698 | 0.694 | 0.697 | 0.615 | 0.646 | 0.992 | 1.05 | 0.98 | 1.09 | 1.02 | 1.06 | 0.964 | 1.08 | 1.02 | 1.03 | 1.02 | 1.14 | 0.99 | 0.986 | 1.05
NCI-H1395 | 0.472 | 0.558 | 0.447 | 0.435 | 0.405 | 0.71 | – | 0.949 | 1.13 | 0.952 | – | – | – | – | – | 0.917 | 0.902 | 0.746 | 0.842 | 0.612
NCI-H1650 | 0.926 | 0.667 | 0.744 | 0.867 | 0.578 | 0.382 | 0.385 | 0.395 | 0.353 | 0.27 | 0.943 | 0.806 | – | 0.736 | 0.581 | 0.374 | 0.315 | 0.404 | 0.371 | 0.392
NCI-H2085 | 0.766 | 0.806 | 0.721 | 0.813 | 0.676 | 0.763 | 0.785 | 0.843 | 0.851 | 0.89 | 0.807 | 0.841 | 0.932 | 0.937 | 0.875 | 1.02 | 0.786 | 0.776 | 0.765 | 0.767
NCI-H1666 | 0.777 | 0.741 | 0.717 | 0.751 | 0.713 | 0.835 | 0.823 | 0.832 | 0.852 | 0.827 | 1.05 | 0.894 | 0.974 | 0.859 | 0.793 | 0.793 | 0.879 | 0.881 | 0.803 | 0.874
NCI-H1993 | 1.04 | 0.963 | 1.02 | 1.1 | 0.667 | 0.53 | 0.627 | 0.555 | 0.728 | 0.542 | 0.924 | 0.77 | 0.861 | 0.77 | 0.72 | 0.629 | 0.55 | 0.707 | 0.515 | 0.598
NCI-H1437 | 0.676 | 0.649 | 0.642 | 0.605 | 0.537 | 0.329 | 0.298 | 0.321 | 0.335 | 0.311 | 0.842 | 0.894 | 0.895 | 0.958 | 0.954 | 0.308 | 0.306 | 0.307 | 0.319 | 0.304
